The record followed here is publication PMC5657837 (Journal of Insect Science, 2014).

This assay relates to midgut α-amylase. In words: α-amylase activity of larval midgut homogenate. Type of assay: biochemical, Mythimna separata.

On to `O=C1CCC(=O)N1Br` [NBS, N-bromosuccinimide], for which the affinity, expressed as Ki, was 2530 nM.
